Experimental data from ChEMBL document CHEMBL1201862, “PubChem BioAssay data set” (2004).
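96-well plates; 48 h exposure; 5 concentrations. Endpoints by linear interpolation between flanking doses. Not reached: highest tested concentration assigned. GI50 marks 50% less growth.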 Activity calls are given as the source filed them. No stated cut-off is given here; in the data, active = GI50 up to about 1.1 µM and inactive = higher.

Columns and labels:
Assay in all cases: growth of human tumour cells (NCI), 48 h
786-0 = tested on: 786-0
A498 = tested on: A498
A549 = tested on: A549
ACHN = tested on: ACHN
BT-549 = tested on: BT-549
CAKI-1 = tested on: CAKI-1
CCRF-CEM = tested on: CCRF-CEM
COLO 205 = tested on: COLO 205
DU-145 = tested on: DU-145
EKVX = tested on: EKVX
HCC 2998 = tested on: HCC 2998
HCT-116 = tested on: HCT-116
HCT-15 = tested on: HCT-15
HOP-62 = tested on: HOP-62
HOP-92 = tested on: HOP-92
HT-29 = tested on: HT-29
Hs-578T = tested on: Hs-578T
IGROV-1 = tested on: IGROV-1
K562 = tested on: K562
KM12 = tested on: KM12
M14 = tested on: M14
MCF7 = tested on: MCF7
MDA-MB-231 = tested on: MDA-MB-231
MDA-MB-435 = tested on: MDA-MB-435
MOLT-4 = tested on: MOLT-4
Malme-3M = tested on: Malme-3M
NCI-H226 = tested on: NCI-H226
NCI-H23 = tested on: NCI-H23
NCI-H460 = tested on: NCI-H460
NCI/ADR-RES = tested on: NCI/ADR-RES
OVCAR-3 = tested on: OVCAR-3
OVCAR-4 = tested on: OVCAR-4
OVCAR-5 = tested on: OVCAR-5
OVCAR-8 = tested on: OVCAR-8
PC-3 = tested on: PC-3
RPMI-8226 = tested on: RPMI-8226
RXF 393 = tested on: RXF 393
SF-268 = tested on: SF-268
SF-295 = tested on: SF-295
SK-MEL-28 = tested on: SK-MEL-28
SK-MEL-2 = tested on: SK-MEL-2
SK-MEL-5 = tested on: SK-MEL-5
SK-OV-3 = tested on: SK-OV-3
SN12C = tested on: SN12C
SNB-19 = tested on: SNB-19
SNB-75 = tested on: SNB-75
SR = tested on: SR
SW-620 = tested on: SW-620
T47D = tested on: T47D
TK-10 = tested on: TK-10
U-251 = tested on: U-251
UACC-257 = tested on: UACC-257
UACC-62 = tested on: UACC-62
UO-31 = tested on: UO-31
HL-60 = tested on: HL-60
LOX IMVI = tested on: LOX IMVI
NCI-H522 = tested on: NCI-H522
SF-539 = tested on: SF-539

COc1ccc2[nH]c(C(O)(Cc3cccnc3)Cc3cccnc3)cc2c1
GI50 (786-0): > 100 µM (inactive)
GI50 (A498): > 100 µM (inactive)
GI50 (A549): > 100 µM (inactive)
GI50 (ACHN): > 100 µM (inactive)
GI50 (BT-549): > 100 µM (inactive)
GI50 (CAKI-1): > 100 µM (inactive)
GI50 (CCRF-CEM): > 100 µM (inactive)
GI50 (COLO 205): > 100 µM (inactive)
GI50 (DU-145): > 100 µM (inactive)
GI50 (EKVX): > 100 µM (inactive)
GI50 (HCC 2998): > 100 µM (inactive)
GI50 (HCT-116): > 100 µM (inactive)
GI50 (HCT-15): > 100 µM
GI50 (HOP-62): > 100 µM (inactive)
GI50 (HOP-92): > 100 µM (inactive)
GI50 (HT-29): > 100 µM (inactive)
GI50 (Hs-578T): > 100 µM (inactive)
GI50 (IGROV-1): > 100 µM (inactive)
GI50 (K562): > 100 µM (inactive)
GI50 (KM12): > 100 µM (inactive)
GI50 (M14): > 100 µM (inactive)
GI50 (MCF7): > 100 µM (inactive)
GI50 (MDA-MB-231): > 100 µM (inactive)
GI50 (MDA-MB-435): > 100 µM (inactive)
GI50 (MOLT-4): > 100 µM (inactive)
GI50 (Malme-3M): > 100 µM (inactive)
GI50 (NCI-H226): > 100 µM (inactive)
GI50 (NCI-H23): > 100 µM (inactive)
GI50 (NCI-H460): > 100 µM (inactive)
GI50 (NCI/ADR-RES): > 100 µM (inactive)
GI50 (OVCAR-3): > 100 µM (inactive)
GI50 (OVCAR-4): > 100 µM (inactive)
GI50 (OVCAR-5): > 100 µM (inactive)
GI50 (OVCAR-8): > 100 µM (inactive)
GI50 (PC-3): > 100 µM (inactive)
GI50 (RPMI-8226): > 100 µM (inactive)
GI50 (RXF 393): > 100 µM (inactive)
GI50 (SF-268): > 100 µM (inactive)
GI50 (SF-295): > 100 µM (inactive)
GI50 (SK-MEL-28): > 100 µM (inactive)
GI50 (SK-MEL-2): > 100 µM (inactive)
GI50 (SK-MEL-5): > 100 µM (inactive)
GI50 (SK-OV-3): > 100 µM (inactive)
GI50 (SN12C): > 100 µM (inactive)
GI50 (SNB-19): > 100 µM (inactive)
GI50 (SNB-75): > 100 µM (inactive)
GI50 (SR): > 100 µM (inactive)
GI50 (SW-620): > 100 µM (inactive)
GI50 (T47D): > 100 µM (inactive)
GI50 (TK-10): > 100 µM (inactive)
GI50 (U-251): > 100 µM (inactive)
GI50 (UACC-257): > 100 µM (inactive)
GI50 (UACC-62): > 100 µM (inactive)
GI50 (UO-31): > 100 µM (inactive)

CCN(CC)CC[S+]([O-])c1c2cc(OC)ccc2nc2ccc(OC)cc12 (configuration not stated)
GI50 (786-0): 2.02 µM (inactive)
GI50 (A498): 16.3 µM (inactive)
GI50 (A549): 24.9 µM (inactive)
GI50 (ACHN): 2.38 µM (inactive)
GI50 (BT-549): 15.8 µM (inactive)
GI50 (CAKI-1): 9.75 µM (inactive)
GI50 (CCRF-CEM): 3.14 µM (inactive)
GI50 (COLO 205): 1.88 µM (inactive)
GI50 (DU-145): 1.91 µM (inactive)
GI50 (EKVX): 15 µM (inactive)
GI50 (HCC 2998): 18.3 µM (inactive)
GI50 (HCT-116): 2.19 µM (inactive)
GI50 (HCT-15): 3.21 µM
GI50 (HL-60): 3.67 µM (inactive)
GI50 (HOP-62): 19.4 µM (inactive)
GI50 (HOP-92): 3.28 µM (inactive)
GI50 (HT-29): 3.44 µM (inactive)
GI50 (Hs-578T): 3.24 µM (inactive)
GI50 (IGROV-1): 2.54 µM (inactive)
GI50 (K562): 5.78 µM (inactive)
GI50 (KM12): 20.6 µM (inactive)
GI50 (LOX IMVI): 3.23 µM (inactive)
GI50 (M14): 9.55 µM (inactive)
GI50 (MCF7): 2.42 µM (inactive)
GI50 (MDA-MB-231): 13.6 µM (inactive)
GI50 (MDA-MB-435): 9.46 µM (inactive)
GI50 (MOLT-4): 2.31 µM (inactive)
GI50 (Malme-3M): 0.865 µM (active)
GI50 (NCI-H226): 18.1 µM (inactive)
GI50 (NCI-H23): 7.64 µM (inactive)
GI50 (NCI-H460): 27.7 µM (inactive)
GI50 (NCI-H522): 0.603 µM (active)
GI50 (NCI/ADR-RES): 19.6 µM (inactive)
GI50 (OVCAR-3): 3.39 µM (inactive)
GI50 (OVCAR-4): 14.4 µM (inactive)
GI50 (OVCAR-5): 16.6 µM (inactive)
GI50 (OVCAR-8): 3.83 µM (inactive)
GI50 (PC-3): 12 µM (inactive)
GI50 (RPMI-8226): 2.63 µM (inactive)
GI50 (RXF 393): 7.33 µM (inactive)
GI50 (SF-268): 7.93 µM (inactive)
GI50 (SF-295): 21.8 µM (inactive)
GI50 (SF-539): 2.32 µM (inactive)
GI50 (SK-MEL-28): 14.7 µM (inactive)
GI50 (SK-MEL-2): 18.6 µM (inactive)
GI50 (SK-MEL-5): 16.5 µM (inactive)
GI50 (SK-OV-3): 21.6 µM (inactive)
GI50 (SN12C): 4.49 µM (inactive)
GI50 (SNB-19): 22.7 µM (inactive)
GI50 (SNB-75): 19.6 µM (inactive)
GI50 (SR): 2.72 µM (inactive)
GI50 (SW-620): 3.03 µM (inactive)
GI50 (T47D): 1.95 µM (inactive)
GI50 (TK-10): 5.56 µM (inactive)
GI50 (U-251): 20 µM (inactive)
GI50 (UACC-257): 5.08 µM (inactive)
GI50 (UACC-62): 17.8 µM (inactive)
GI50 (UO-31): 2.25 µM (inactive)
